Laboratory results from PubChem BioAssay AID2423 (Broad Institute, 2010).
pEC50: −log10 of the molar value. Results filed as inconclusive are left out. Activity calls are given as the source filed them. No rule for the calls is given here.

test system: C. albicans CaCi-8 + fluconazole, Alamar Blue growth, 48 h; assay: resistant C. albicans growth inhibition with fluconazole, dose response, CaCi-8 strain, Alamar Blue fluorescence (AID 2423)

| Structure (SMILES) | pEC50 | EC50 |
| --- | --- | --- |
| Cn1c(/C=C/c2cccc([N+](=O)[O-])c2)c([N+](=O)[O-])c(=O)n(C)c1=O | 5.60 | – |
| CCN(Cc1ccccc1)S(=O)(=O)c1ccc(C(=O)Nc2nnc(-c3ccccc3OC)o2)cc1 | > 6.92 | – |
| N/C(=N\OC(=O)N1c2ccccc2Sc2ccccc21)c1ccccc1 | 6.71 | – |
| Cc1cc(SCC(=O)N/N=C/c2ccc(O)cc2O)c(C)cc1Br | 5.30 | – |
| COc1ccc(/C=C/c2cc(-c3ccc(C)cc3)o[n+]2C)cc1 | 5.78 | – |
| COc1ccc(C(=O)NNC(=S)NC(=O)c2ccc(Cl)cc2)cc1 | 6.03 | – |
| CCN=c1scc(-c2ccc3c(c2)NC(=O)CO3)n1N=C1CCCC1 | 5.14 | – |
| CC(=S)/C=C1\Sc2ccccc2N1C | 5.25 | – |
| O=C(O)c1ccc(Nc2cnc3ccccc3n2)cc1 | – | > 16000 nM (inactive) |
| Cc1ccc(C(=O)Nc2cccc(-c3cn4ccccc4n3)c2)cc1 | 6.49 | – |
| C/C(=N\NC(=O)c1cc(C2CC2)nc2ccccc12)c1ccc(O)cc1O | 5.67 | – |
| N/C(Cc1ccc(Cl)c(Cl)c1)=N\OC(=O)c1cccs1 | 6.05 | – |
| O=C(Nc1nnc(C2COc3ccccc3O2)o1)c1ccc(F)cc1 (centres undefined) | 6.04 | – |
| O=C1c2ccccc2C(=O)c2c1cccc2N1CCCC1 | – | > 16000 nM (inactive) |
| CN(C)S(=O)(=O)c1cccc(NC(=S)N/N=C/c2ccc(O)c(O)c2O)c1 | 5.57 | – |
| CCOC(=O)C(=Cc1cc(=O)c(OC)co1)C(=O)OCC | 6.48 | – |
| O=C(Cc1ccc([N+](=O)[O-])cc1)NNC(=O)c1ccc2c(c1)OCO2 | – | > 15000 nM (inactive) |
| N#C/C(=N\Nc1cccc([N+](=O)[O-])c1)C(=O)c1ccc(Br)cc1 | 5.25 | – |
| O=C(c1cc(COc2cccc(C(F)(F)F)c2)on1)N1CCC(c2ccncc2)CC1 | 5.59 | – |
| Cc1onc(-c2ccccc2Cl)c1C(=O)Nc1sc2c(c1C#N)CCC2 | > 6.92 | – |
| CC(=O)NNC(=S)NC(=O)C(c1ccccc1)c1ccccc1 | 5.50 | – |
| CC1(C)CC(N=Cc2c(O)n(Cc3ccc4c(c3)OCO4)c(=O)c3ccccc23)CC(C)(C)N1 | 5.41 | – |

| Structure (SMILES) | pEC50 | EC50 |
| --- | --- | --- |
| C(=N\NC1=Nc2cccc3cccc1c23)/c1ccccn1 | – | > 16000 nM (inactive) |
| CC(=O)NC(c1cccs1)c1cc([N+](=O)[O-])c2cccnc2c1O (centres undefined) | 5.97 | – |
| COc1ccc(C(=O)C(CN2CCCC2)c2ccccc2)cc1 (centres undefined) | – | > 16000 nM (inactive) |
| CC1(O)CC(c2ccc(Cl)cc2)=NN1C(=O)c1ccc([N+](=O)[O-])cc1 (centres undefined) | 5.49 | – |
| OC(COc1ccc2c(c1)OCO2)CN1CCCC1 (centres undefined) | – | > 15000 nM (inactive) |
| COc1ccc(C(=O)N/N=C(\Cc2ncc[nH]2)c2ccccc2)cc1 | – | > 16000 nM (inactive) |
| CCC(=O)NC(c1ccc(Cl)cc1Cl)c1ccc2cccnc2c1O (centres undefined) | 6.15 | – |
| Cc1ccc(N=Cc2cc(Cc3ccccc3Cl)cc([N+](=O)[O-])c2O)c(O)c1 | – | > 15000 nM (inactive) |
| C=CCNC(=S)Nc1sc2c(c1C(=O)OCC)CC(C)(CC)OC2 (centres undefined) | 5.86 | – |
| O=C(NNC(=S)Nc1ccc(Cl)cc1)c1ccccc1OC(F)F | 5.58 | – |
| COc1cccc(NC(=O)c2ccc3nc(C)sc3c2)c1 | 5.83 | – |
| CCc1ccccc1NC(=S)NNC(=O)c1ccccc1Cl | 6.08 | – |
| O=c1[nH]c(Nc2ccc3c(c2)OCCO3)nnc1Cc1ccccc1 | – | > 16000 nM (inactive) |
| CCCCCCCNC(=O)COc1ccc2c(c1)C(=O)CC(C)(C)O2 | 5.96 | – |
| O=C(Oc1c(CN2CCOCC2)cc(Cl)c2cccnc12)c1cccs1 | 5.47 | – |
| O=c1c2ccccc2nc(/C=C/c2ccc([N+](=O)[O-])o2)n1-c1ccc(O)cc1 | > 6.92 | – |
| O=C(CN1CCN(S(=O)(=O)c2ccccc2)CC1)Nc1ccc2c(c1)CCC2 | 4.98 | – |
| CN(C)CCCNC(=O)c1ccc(-c2nc(-c3ccc(Cl)cc3)cs2)cc1 | 5.58 | – |
| Cc1ccc(/C=N/NC(=O)c2c(-c3ccccc3)noc2C)c(O)c1 | 5.21 | – |
| Cc1cc(C)c2nc(NNC(=O)c3cc(-c4cccs4)nc4ccccc34)sc2c1 | 6.09 | – |
| COc1cccc(N=Nc2ccc(O)c3ncccc23)c1 | 6.30 | – |
| COCc1nnc(NC(=O)c2ccc(S(=O)(=O)N3CCCCCC3)cc2)o1 | 4.89 | – |

| Structure (SMILES) | pEC50 | EC50 |
| --- | --- | --- |
| Cc1ccc(S(=O)(=O)/N=C(/c2ccccc2)N2CCOCC2)c(C)c1 | – | > 16000 nM (inactive) |
| CCCCCCc1c(C)nc(-n2[nH]c(C)c(CCO)c2=O)[nH]c1=O | 5.77 | – |
| CCn1c(=O)n(CC(=O)N2CCN(c3ccccc3F)CC2)c(=O)c2ccccc21 | – | > 16000 nM (inactive) |
| O=S(=O)(Cc1ccc(Cl)cc1)N1CCN(Cc2ccccc2)CC1 | – | > 16000 nM (inactive) |
| O=C(COc1ccccc1)NNC(=S)NC(=O)c1ccc(Cl)cc1Cl | 5.31 | – |
| Cc1cc(C(=O)Nc2nc(-c3ccccn3)cs2)ccc1[N+](=O)[O-] | 6.02 | – |
| CCOc1cc(-c2nc(-c3cc(OC)c(OC)c(OC)c3)no2)cc(OCC)c1OCC | – | > 16000 nM (inactive) |
| CCOc1ccc2nc(NC(=S)N(C)C)sc2c1 | 5.92 | – |
| O=C(NC(=S)NNC(=O)c1cc2ccccc2cc1O)c1ccco1 | 5.99 | – |
| C=C(C)CNC(=S)N/N=C1\CCCCc2ccccc21 | – | > 16000 nM (inactive) |
| Cc1ccc(-c2nc(-c3cccnc3)no2)c(C)c1 | 4.98 | – |
| Cn1cccc1-c1cc(C(=O)N2CCc3c([nH]c4ccccc34)C2c2ccccn2)[nH]n1 (centres undefined) | 6.13 | – |
| CC(C)(C)c1ccc(OCCCC(=O)NNC(=O)c2ccccc2O)cc1 | 5.59 | – |
| CC(C)C(=O)NC(c1ccco1)c1ccc2cccnc2c1O (centres undefined) | 5.71 | – |
| CCCc1nnc(NC(=S)Nc2ccccc2)s1 | 5.87 | – |
| Cc1ccc(-c2nc3ccc(Cl)cc3c(=O)n2O)cc1 | 5.67 | – |
| Nc1[nH]c(=O)ncc1F | 6.15 | – |
| CN1CCN(CCCNC(=O)c2ccc(/C=C3\Oc4ccccc4N(Cc4ccc(Cl)cc4)C3=O)cc2)CC1 | 5.12 | – |
| CCNc1nc(N)nc(-c2cc(Cl)ccc2O)n1 | 5.72 | – |
| Cc1cccc(C(=O)CC(=O)c2cc(Cl)ccc2O)c1 | 5.57 | – |
| Clc1ccccc1-c1nc2ccccc2c2nc3ccccc3n12 | 6.69 | – |
| C[C@@H]1C[C@@H]2O[C@H]2/C=C\C=C\C(=O)Cc2c(Cl)c(O)cc(O)c2C(=O)O1 | 6.63 | – |

| Structure (SMILES) | pEC50 | EC50 |
| --- | --- | --- |
| COc1ccc(C(=O)Oc2c(CN3CCOCC3)cc(Cl)c3cccnc23)cc1 | 5.04 | – |
| CSc1ccc(/C=C/C(=O)Nc2ccccc2)cc1 | – | > 15000 nM (inactive) |
| O=[N+]([O-])c1ccc(S(=O)(=O)Nc2nc3ccccc3nc2Nc2ccccc2)cc1 | 5.84 | – |
| C=CC[C@@H]1C=C(C)C[C@H](C)C[C@H](OC)[C@H]2O[C@@](O)(C(=O)C(=O)N3CCCC[C@H]3C(=O)O[C@H](/C(C)=C/[C@@H]3CC[C@@H](O)[C@H](OC)C3)[C@H](C)[C@@H](O)CC1=O)[C@H](C)C[C@@H]2OC | > 6.92 | – |
| Cc1ccc(NC(=O)C2C(C(=O)O)C3C=CC2C32CC2)cc1 (centres undefined) | – | > 16000 nM (inactive) |
| O=[N+]([O-])c1cc(Cl)c(O)c2ncccc12 | 6.46 | – |
| O=C(N/N=C\C=C\c1ccc([N+](=O)[O-])o1)c1cccs1 | – | > 16000 nM (inactive) |
| CC(=O)c1sc(NC(=O)CCS(=O)(=O)c2ccccc2)nc1C | 6.43 | – |
| COCCSc1nnc(NC(=O)CCS(=O)(=O)c2ccccc2)s1 | 5.73 | – |
| Cc1nn(-c2ccccc2)c(N2CCCC2)c1/C=N/NC(=O)c1ccccc1O | – | > 15000 nM (inactive) |
| O=C1CN2C(=Nc3ccc(Cl)cc3C2c2ccccc2)CN1 (centres undefined) | 5.48 | – |
| O=C(COc1ccccc1)Nc1nnc(-c2ccc3c(c2)CCCC3)o1 | 6.14 | – |
| O=C(Nc1nnc(-c2ccc3c(c2)CCCC3)o1)c1ccc(Cl)cc1Cl | > 6.92 | – |
| Cc1cccc(NC2=NC(=S)N(c3cccc(C(=O)O)c3)C23CCCCC3)c1 | 6.11 | – |
| CC(C)n1c(N2CCN(C(=O)Nc3ccc(Cl)cc3)CC2)nc2ccccc21 | – | > 15000 nM (inactive) |
| C[n+]1c2n(c3ccccc31)N=C(c1ccc(-c3ccccc3)cc1)CS2 | 5.73 | – |
| O=C(NNC(=S)Nc1ccc(Cl)c(Cl)c1)c1ccccn1 | 5.95 | – |
| OCCN1CCN(C(=S)NC2CCCC2)CC1 | – | > 16000 nM (inactive) |
| Oc1ccc2ccccc2c1/C=N/Nc1nnc(-c2ncc[nH]2)c2ccccc12 | 6.42 | – |
| C/C(=N\NC(=O)c1cc(-c2cccnc2)nc2ccccc12)c1ccc(O)cc1O | 5.84 | – |
| O=C(/C=C/c1ccccc1)NC(=S)Nc1ccc(N2CCOCC2)c(Cl)c1 | – | > 16000 nM (inactive) |
| O=Cc1cc(N=Nc2ccccc2Cl)ccc1O | 5.19 | – |

| Structure (SMILES) | pEC50 | EC50 |
| --- | --- | --- |
| O=C(CCC(=O)Nc1ccccc1Cl)NNS(=O)(=O)c1ccc(Cl)cc1 | – | > 16000 nM (inactive) |
| CC(=O)Nc1cccc(NC(=O)C2CCCN2C(=O)Nc2ccc(Cl)cc2)c1 (centres undefined) | – | > 16000 nM (inactive) |
| O=C(N/N=C/c1cc(Br)c(Br)o1)c1ccc2c(c1)OCCO2 | 6.19 | – |
| CCOC(=O)C1CCCN(c2cc(C)nc3cc(-c4ccc(F)cc4)nn23)C1 (centres undefined) | – | > 16000 nM (inactive) |
| C(=C\c1ccccc1)/C=N/Nc1nc(N2CCCCC2)nc(N2CCCCC2)n1 | – | > 15000 nM (inactive) |
| CCOc1cc(/C=C(\C#N)C(=O)NCC2CCCO2)ccc1OCC(N)=O (centres undefined) | – | > 16000 nM (inactive) |
| CC(C)c1noc2ncc(C(=O)c3cc(Cl)cc(Cl)c3O)cc12 | 5.54 | – |
| COc1ccc(C(NC(=O)C(C)C)c2ccc3cccnc3c2O)cc1 (centres undefined) | 6.10 | – |
| COc1ccc(-[n+]2c(-c3ccccc3)cc(-c3ccc(C)cc3)cc2-c2ccccc2)cc1 | – | > 15000 nM (inactive) |
| O=c1c2ccccc2nc(/C=C/c2ccc([N+](=O)[O-])o2)n1CCCO | 6.82 | – |
| CCN(CC)Cc1ccc(NC(=O)c2sc3cc(Cl)ccc3c2Cl)cc1 | 5.96 | – |
| COc1cccc(-n2nnnc2S(C)(=O)=O)c1 | – | > 15000 nM (inactive) |
| COC(=O)c1c[nH]n2c(=O)c(Cc3ccc(F)cc3Cl)c(C)nc12 | 6.12 | – |
| COc1cc(/C=C/C(=O)Nc2cccnc2)cc(OC)c1OC | – | > 16000 nM (inactive) |
| Cc1ccc(S(=O)(=O)c2ncccc2[N+](=O)[O-])cc1 | 5.96 | – |
| CCOc1cc(S(=O)(=O)NCc2ccccc2)c(OCC)cc1-n1cnnn1 | – | > 15000 nM (inactive) |
| CC(=O)c1ccc(NC(=O)Nc2cccc3ccccc23)cc1 | – | > 15000 nM (inactive) |
| OCc1ccc(O)c2ncccc12 | 4.91 | – |
| Nc1[nH]n2c(=O)cc(-c3ccccc3)nc2c1N=Nc1ccc(S(N)(=O)=O)cc1 | 5.51 | – |
| CCOC(=O)c1sc(Nc2nc3c(OC)cccc3s2)nc1C | 5.71 | – |
| O=C(N/N=C\c1c(O)ccc2ccccc12)c1ccc(S(=O)(=O)N2CCCCC2)cc1 | 6.55 | – |
